Columns and labels:
testosterone levels = test: Phase II study of J867: total testosterone levels over 12 weeks; type: in vivo, female subjects; conditions: for mean testosterone concentration increase over the treatment period: 12 week treatment, female subjects aged 18-49
Method: (§1) The effect of SPRMs on testosterone levels and SHBG levels was studied using various doses of J867 over three months. The study was a phase II, multi-center, randomized, double blind, parallel group study of J867 at doses of 5 mg, 10 mg, and 25 mg once a day (QD)compared to placebo. Approximately 120 female subjects between the ages of 18 and 49 were enrolled in the study and randomly assigned to one of the four dosing groups above. During the 12 week study, testosterone and SHBG were measured at screening visits during weeks 2, 4, 8, and 12 of the study.
FIG. 1 is a graph showing total testosterone levels as a function of time during the study. […] Testosterone concentrations were relatively constant for the group receiving placebo. […] Over the treatment period, the mean testosterone concentrations for the 5 mg QD group increased approximately 7-15 ng/dL; the mean increase for the 10 mg QD group was approximately 15-21 ng/dL; and the mean concentrations observed following treatment with 25 mg QD increased approximately 16-25 ng/dL.

SHBG levels = test: Phase II study of J867: SHBG levels over 12 weeks; type: in vivo, female subjects
Method: as §1
SHBG levels were also measured at weeks 2, 4, 8, and 12 of the study.

progesterone receptor = target: T1, progesterone receptor (Oryctolagus cuniculus, UniProt P06186); conditions: rabbit model, scale of 0-4; agonistic/antagonistic effect at the progesterone receptor; cited from earlier work
T1 construct: effects of compounds at the progesterone receptor using a rabbit model; from tissue; host or cells: living rabbit (whole-animal model)
T1 sequence (P06186 1-930): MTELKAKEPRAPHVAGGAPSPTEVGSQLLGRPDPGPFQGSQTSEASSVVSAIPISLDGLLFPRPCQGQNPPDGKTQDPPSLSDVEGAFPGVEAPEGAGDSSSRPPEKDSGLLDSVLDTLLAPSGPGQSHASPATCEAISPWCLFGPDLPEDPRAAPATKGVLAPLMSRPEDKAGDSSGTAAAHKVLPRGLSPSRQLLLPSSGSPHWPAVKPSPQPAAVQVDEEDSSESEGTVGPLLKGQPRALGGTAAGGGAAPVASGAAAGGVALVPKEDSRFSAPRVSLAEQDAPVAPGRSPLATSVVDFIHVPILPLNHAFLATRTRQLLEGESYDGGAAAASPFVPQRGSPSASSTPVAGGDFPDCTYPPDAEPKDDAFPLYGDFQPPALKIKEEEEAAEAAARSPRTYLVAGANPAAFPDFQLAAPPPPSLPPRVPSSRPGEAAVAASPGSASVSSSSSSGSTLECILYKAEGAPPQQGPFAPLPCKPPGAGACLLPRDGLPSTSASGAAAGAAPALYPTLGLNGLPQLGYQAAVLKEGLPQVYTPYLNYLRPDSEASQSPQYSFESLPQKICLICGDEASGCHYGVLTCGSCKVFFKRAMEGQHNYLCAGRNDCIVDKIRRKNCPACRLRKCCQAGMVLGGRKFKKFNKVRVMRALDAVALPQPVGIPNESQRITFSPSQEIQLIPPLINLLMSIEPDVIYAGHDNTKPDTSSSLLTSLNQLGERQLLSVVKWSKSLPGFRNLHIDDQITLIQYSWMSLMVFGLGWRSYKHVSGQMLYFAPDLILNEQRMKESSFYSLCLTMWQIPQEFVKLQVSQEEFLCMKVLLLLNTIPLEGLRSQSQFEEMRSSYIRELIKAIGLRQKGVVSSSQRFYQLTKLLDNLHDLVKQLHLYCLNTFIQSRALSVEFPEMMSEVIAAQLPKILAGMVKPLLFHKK

Compound | mean testosterone concentration increase over the treatment period (testosterone levels; 5 mg QD) [ng/dL] | mean testosterone concentration increase over the treatment period (testosterone levels; 10 mg QD) [ng/dL] | mean testosterone concentration increase over the treatment period (testosterone levels; 25 mg QD) [ng/dL] | total testosterone levels (FIG. 1) (testosterone levels; all doses (5, 10, 25 mg QD)) | visit with largest mean increase of testosterone from baseline (testosterone levels; all three dose groups (5, 10, 25 mg QD)) | testosterone concentrations at the end of the study (testosterone levels; all three dose groups, week 12) | mean level of SHBG during treatment (SHBG levels; 5 mg QD) | mean level of SHBG during treatment (SHBG levels; 10 mg QD) | mean level of SHBG during treatment (SHBG levels; 25 mg QD) | SHBG during the treatment period of three months (FIG. 2) (SHBG levels; weeks 2, 4, 8, 12, doses not separated) | McPhail score (progesterone receptor)
COC[C@]1(OC)CC[C@H]2[C@@H]3CCC4=CC(=O)CCC4=C3[C@@H](c3ccc(/C=N/O)cc3)C[C@@]21C [J867, [4-[17β-Methoxy-17α-(methoxymethyl)-3-oxoestra-4,9-dien-11β-yl]benzaldehyd-(1E)-oxim]] | 7 to 15 | 15 to 21 | 16 to 25 | testosterone levels increased with all doses | week 2 visit | still elevated above baseline | remained relatively constant | decreased from baseline | decreased from baseline | a decrease in SHBG | –
CC(=O)[C@H]1CC[C@H]2[C@@H]3CCC4=CC(=O)CC[C@]4(C)[C@H]3CC[C@]12C [progesterone] | – | – | – | – | – | – | – | – | – | – | 4
CC#C[C@]1(O)CC[C@H]2[C@@H]3CCC4=CC(=O)CCC4=C3[C@@H](c3ccc(N(C)C)cc3)C[C@@]21C [RU486, mifepristone] | – | – | – | – | – | – | – | – | – | – | less than 0.5
